Measured values published in publication PMC4511006 (PLoS ONE, 2015).
Where “and” joins values, the source holds several entries; their conditions need not be identical. Identical values can stand only once. Ends that are not written are not given here.

Columns and labels:
[1] = tested on: classical pathway complement activity in factor B-depleted human serum; test: Hemolysis assay using factor-B depleted serum and antibody-sensitized sheep erythrocytes; format: biochemical; conditions: 0.77mM peptide in factor B-depleted serum; triplicate, mean; standardized to water or DMSO
Procedure: (§1) Soluble peptides were dissolved in water whereas insoluble peptides were reconstituted in DMSO. Results were standardized to water or DMSO, as appropriate.

[2] = target: T1, C1 complex (C1s bound to C1q) (Homo sapiens, UniProt P02745+P02746+P02747); test: Displacement (competition ELISA) assay of C1s from C1; format: binding; conditions: C1 0.05μg; CP from 0.145μM, PA from 1.45μM (10-fold molar excess)
T1 construct: partially purified C1 complex was added to wells at a constant amount
T1 sequence (P02745 23-245): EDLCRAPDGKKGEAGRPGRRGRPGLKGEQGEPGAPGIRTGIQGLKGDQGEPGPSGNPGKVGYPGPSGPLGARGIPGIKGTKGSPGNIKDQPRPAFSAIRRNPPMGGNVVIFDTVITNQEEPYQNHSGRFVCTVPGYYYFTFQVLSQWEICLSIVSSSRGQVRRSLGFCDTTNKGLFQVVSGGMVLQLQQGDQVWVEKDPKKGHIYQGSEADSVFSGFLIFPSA
T1 sequence (P02746 28-253): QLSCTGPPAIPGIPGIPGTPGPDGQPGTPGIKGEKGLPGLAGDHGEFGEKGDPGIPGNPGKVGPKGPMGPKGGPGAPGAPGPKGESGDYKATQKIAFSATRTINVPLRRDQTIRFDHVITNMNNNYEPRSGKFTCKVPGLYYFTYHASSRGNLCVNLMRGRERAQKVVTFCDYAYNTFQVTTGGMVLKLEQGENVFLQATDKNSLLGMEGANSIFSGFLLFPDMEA
T1 sequence (P02747 29-245): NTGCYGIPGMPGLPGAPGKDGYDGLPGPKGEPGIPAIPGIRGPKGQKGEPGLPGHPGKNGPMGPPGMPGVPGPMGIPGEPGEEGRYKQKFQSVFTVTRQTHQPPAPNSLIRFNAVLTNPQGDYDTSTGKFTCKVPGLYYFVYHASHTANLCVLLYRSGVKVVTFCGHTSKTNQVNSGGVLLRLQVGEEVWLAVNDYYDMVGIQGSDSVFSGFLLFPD
Procedure: This was performed similarly to the competitive binding assay described by Hair et al., 2010 [8], with the following differences. Plates were coated with monoclonal antibody to C1q (Quidel) at 1:1000 overnight. In blocking buffer containing 2mM CaC1_2, partially purified C1 complex was added to wells at a constant amount (0.05μg) with decreasing amounts of either CP or PA, starting with concentrations for CP at 0.145μM and 1.45μM for PA. Detection of C1q and C1s was confirmed as described by Hair et al., 2010 [8].

complement activation = conditions: Wistar rats, delivered IV; cited from earlier work
Excerpt: However, a serious limitation to these peptide analogs was their lack of solubility in aqueous solution. Given the aqueous solubility of PA-dPEG24, we set out to determine their efficacy in vivo.

intact C1q = target: intact C1q; design: method as in PMID 22906481; conditions: SPR; cited from earlier work
Solubility in water = format: physicochemical
Procedure: as §1

ficolin H (ficolin-3) = ficolin H (ficolin-3) (Homo sapiens, UniProt O75636); test: ELISA, biotinylated PA binding to ficolin H; conditions: ficolin adsorbed at 10μg/mL, 0.4M NaCl in blocking buffer, compared with C1q
ficolin H (ficolin-3), sequence (O75636 24-299): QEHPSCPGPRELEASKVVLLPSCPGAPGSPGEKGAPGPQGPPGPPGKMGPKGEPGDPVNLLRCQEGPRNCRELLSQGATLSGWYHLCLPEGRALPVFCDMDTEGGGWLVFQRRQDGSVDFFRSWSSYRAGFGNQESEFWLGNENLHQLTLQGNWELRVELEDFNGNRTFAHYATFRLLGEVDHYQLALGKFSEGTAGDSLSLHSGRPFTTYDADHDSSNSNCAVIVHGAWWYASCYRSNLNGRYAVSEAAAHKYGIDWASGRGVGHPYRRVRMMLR
Procedure: (§2) Wild-type recombinant ficolins L (ficolin-2), H (ficolin-3), M (ficolin-1) were adsorbed to a microtiter plate at 10μg/mL. C1q (25nM) and BSA (30μg/mL) were immobilized as controls. Plates were blocked with 3% BSA/PBST for 2h. Biotinylated PA was added at various concentrations in blocking buffer containing 0.4M NaCl (to reduce nonspecific binding) and incubated for 1h at room temperature. Following washing, wells were probed neutravidin-HRP (1:4000) in blocking buffer for 1h and developed as described above. Absorbance values from wells not incubated with biotinylated PA were subtracted as background.

ficolin L (ficolin-2) = ficolin L (ficolin-2) (Homo sapiens, UniProt Q15485); test: ELISA, biotinylated PA binding to ficolin L; conditions: ficolin adsorbed at 10μg/mL, 0.4M NaCl in blocking buffer, compared with C1q
ficolin L (ficolin-2), sequence (Q15485 26-313): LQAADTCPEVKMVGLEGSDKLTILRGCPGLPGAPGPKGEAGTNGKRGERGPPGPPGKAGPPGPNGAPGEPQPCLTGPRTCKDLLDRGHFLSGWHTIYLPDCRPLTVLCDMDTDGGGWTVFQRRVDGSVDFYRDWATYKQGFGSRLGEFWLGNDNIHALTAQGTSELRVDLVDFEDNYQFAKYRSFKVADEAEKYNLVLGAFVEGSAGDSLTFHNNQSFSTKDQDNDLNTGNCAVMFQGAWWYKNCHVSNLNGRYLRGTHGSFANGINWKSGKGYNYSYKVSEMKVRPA
Procedure: as §2

C1q = target: T2, C1q (Homo sapiens, UniProt P02745+P02746+P02747); test: Cross-linking of biotinylated PA to C1q with BS3, SDS-PAGE/western blot; format: binding; conditions: C1q:biotinylated PA 1:25, BS3 20μM
T2 construct: Purified C1q (1μg) was added to wells
T2 sequence (P02745 23-245): as the sequence (P02745 23-245) above
T2 sequence (P02746 28-253): as the sequence (P02746 28-253) above
T2 sequence (P02747 29-245): as the sequence (P02747 29-245) above
Procedure: Purified C1q and biotinylated PA, at a ratio of 1:25, were incubated in conjugation buffer (0.1M Na2HPO4, 0.15M NaCl, pH 8.0) at room temperature for 2.5h. The crosslinker BS^3 (Bis(sulfosuccinimidlyl) suberate, Pierce) was added to a final concentration of 20μM and the mixture was incubated for 30 min. The reaction was quenched with 1M Tris-HCl (pH 7.5) to a final concentration of […] for 15 min. Reactions were analyzed via SDS-PAGE (NU-PAGE Bis/Tris 4–12% gradient gel) and western blot using a 1:1500 dilution of streptavidin IR 680 (LiCor) for 1h, 1:2000 dilution of goat anti-C1q IgG (CompTech) for 1h and 1:10,000 dilution of donkey anti-goat IgG IR 800 (Licor) for 1h. Gels were analyzed on an Odyssey Infrared Imaging System (Licor) and identical gels were visualized with bio-safe Coomassie stain (Bio-Rad) to confirm total protein content.

ficolin M (ficolin-1) = ficolin M (ficolin-1) (Homo sapiens, UniProt O00602); test: ELISA, biotinylated PA binding to ficolin M; conditions: ficolin adsorbed at 10μg/mL, 0.4M NaCl in blocking buffer, compared with C1q
ficolin M (ficolin-1), sequence (O00602 30-326): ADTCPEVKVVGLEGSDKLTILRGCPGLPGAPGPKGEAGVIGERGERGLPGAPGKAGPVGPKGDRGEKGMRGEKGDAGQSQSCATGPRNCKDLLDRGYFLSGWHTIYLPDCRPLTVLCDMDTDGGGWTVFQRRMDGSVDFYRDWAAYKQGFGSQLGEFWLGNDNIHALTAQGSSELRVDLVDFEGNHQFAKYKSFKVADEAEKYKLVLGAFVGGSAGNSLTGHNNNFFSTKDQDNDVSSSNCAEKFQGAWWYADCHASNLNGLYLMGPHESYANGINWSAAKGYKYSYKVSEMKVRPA
Procedure: as §2

## IALILEPICCQEEAA [PA-R13E]
[1]
  Hemolysis (%): 101.99%

## IALILEPICCQRRAA [PA-E12R]
[1]
  Hemolysis (%): 95.83%

## IARILEPICCQERAA [PA-L3R, arginine substitution peptide of PA]
[1]
  Hemolysis (%): 80.45%

## IRLILEPICCQERAA [PA-A2R, arginine substitution peptide of PA]
[1]
  Hemolysis (%): 87.28%

## IALILEPICCQERAE [PA-A15E]
[1]
  Hemolysis (%): 93.13%

## IALILEPICCQEREA [PA-A14E]
[1]
  Hemolysis (%): 98.09%

## IALILEPECCQERAA [PA-I8E, glutamic acid substitution peptide of PA]
[1]
  Hemolysis (%): 95.74%

## RALILEPICCQERAA [PA-I1R, arginine substitution peptide of PA]
[1]
  Hemolysis (%): 91.93%

## IALILEPICCQERAR [PA-A15R]
[1]
  Hemolysis (%): 44.24%

## IALILERICCQERAA [PA-P7R, arginine substitution peptide of PA]
[1]
  Hemolysis (%): 89.85%

## IALILEPICCQERRA [PA-A14R]
[1]
  Hemolysis (%): 88.65%

## IALILEPICCRERAA [PA-Q11R]
[1]
  Hemolysis (%): 90.87%

## IALILRPICCQERAA [PA-E6R, arginine substitution peptide of PA]
[1]
  Hemolysis (%): 87.59%

## IALIEEPICCQERAA [PA-L5E, glutamic acid substitution peptide of PA]
[1]
  Hemolysis (%): 94.33%

## CC[C@H](C)[C@H](N)C(=O)N[C@@H](C)C(=O)N[C@@H](CC(C)C)C(=O)N[C@H](C(=O)N[C@@H](CC(C)C)C(=O)N[C@@H](CCC(=O)O)C(=O)N1CCC[C@H]1C(=O)N[C@H](C(=O)N[C@@H](CS)C(=O)N[C@@H](CS)C(=O)N[C@@H](CCC(N)=O)C(=O)N[C@@H](CCC(=O)O)C(=O)N[C@@H](CCCNC(=N)N)C(=O)N[C@@H](C)C(=O)N[C@@H](C)C(=O)O)[C@@H](C)CC)[C@@H](C)CC [PA]
[2]
  displacement of C1s from C1q: did not demonstrate competitive displacement of C1s from C1q
Complement activation
  inhibition of complement activation in vivo: able to inhibit complement activation in Wistar rats
Intact C1q
  Kd: 0.0333 µM and 0.033 µM
[1]
  Hemolysis (%): 39.49%
Solubility in water
  solubility in water / aqueous solutions: lack of solubility in aqueous solutions

## biotinylated PA: C-terminally biotinylated PA peptide (IALILEPICCQERAA-biotin; cysteine pairing not given here)
Ficolin H (ficolin-3)
  binding to ficolin H: bound PA to the same degree as C1q
Ficolin L (ficolin-2)
  binding to ficolin L: bound PA to the same degree as C1q
C1q
  binding to C1q chains after cross-linking: can bind monomeric chains of C1q along with the dimers A-B and C-C
Ficolin M (ficolin-1)
  binding to ficolin M: bound PA to the same degree as C1q

## IELILEPICCQERAA [PA-A2E, glutamic acid substitution peptide of PA]
[1]
  Hemolysis (%): 92.24%

## IAEILEPICCQERAA [PA-L3E, glutamic acid substitution peptide of PA]
[1]
  Hemolysis (%): 100.27%

## IALILEEICCQERAA [PA-P7E, glutamic acid substitution peptide of PA]
[1]
  Hemolysis (%): 96.10%

## IALRLEPICCQERAA [PA-I4R, arginine substitution peptide of PA]
[1]
  Hemolysis (%): 43.71%

## IALELEPICCQERAA [PA-I4E, glutamic acid substitution peptide of PA]
[1]
  Hemolysis (%): 92.07%

## EALILEPICCQERAA [PA-I1E, glutamic acid substitution peptide of PA]
[1]
  Hemolysis (%): 89.27%

## IALILEPICCEERAA [PA-Q11E]
[1]
  Hemolysis (%): 65.60%

## IALILEPRCCQERAA [PA-I8R, arginine substitution peptide of PA]
[1]
  Hemolysis (%): 62.32%

## IALIREPICCQERAA [PA-L5R, arginine substitution peptide of PA]
[1]
  Hemolysis (%): 93.40%
